Assay results: patent US20240277698A1, “METHODS OF USING ALDOSTERONE SYNTHASE INHIBITORS” (CINCOR PHARMA, INC., priority 2021, published 2024)
Where two headings read alike, the source gives them in different places.

What was measured:
[1] = biological target: T1, aldosterone synthase (Homo sapiens, UniProt P19099); assay: SAD study: plasma and urine aldosterone and precursors (Cortrosyn challenge, standing, normal and low salt diet); format: in vivo; details: normal salt diet, low salt diet conditions
T1 construct: synthesized in the adrenal cortex by aldosterone synthase; endogenous in cells; host or cells: adrenal cortex of healthy human subjects (in vivo, oral dosing)
T1 sequence (P19099 25-503): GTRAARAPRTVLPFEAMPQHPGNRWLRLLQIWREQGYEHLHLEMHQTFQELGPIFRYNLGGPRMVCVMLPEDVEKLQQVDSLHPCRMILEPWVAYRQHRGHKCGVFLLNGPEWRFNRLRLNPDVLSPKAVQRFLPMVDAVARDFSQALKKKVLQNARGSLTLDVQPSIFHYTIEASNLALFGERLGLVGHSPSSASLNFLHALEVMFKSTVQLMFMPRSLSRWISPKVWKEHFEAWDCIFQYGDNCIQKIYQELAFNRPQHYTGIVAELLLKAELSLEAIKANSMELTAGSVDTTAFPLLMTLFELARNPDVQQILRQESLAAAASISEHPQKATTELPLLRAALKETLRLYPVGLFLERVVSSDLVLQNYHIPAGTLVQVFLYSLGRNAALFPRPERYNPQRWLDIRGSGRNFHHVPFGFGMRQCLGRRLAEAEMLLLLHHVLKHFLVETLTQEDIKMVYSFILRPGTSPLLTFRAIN
Procedure: (§1) Single doses of (R)-compound 1 reduced plasma and urine aldosterone levels by approximately 85% to 90% in a dose-dependent manner, consistently reaching a maximum effect at a dose of 10 mg (R)-compound 1 under the different conditions tested (Cortrosyn® challenge, standing, normal salt diet, and low salt diet conditions). No change in plasma cortisol levels was apparent across the full dose range tested (0 to 360 mg (R)-compound 1).
(§2) A maximum effect on aldosterone reduction was consistently achieved at a dose of 10 mg under the different conditions tested in healthy subjects (Cortrosyn® challenge, standing, normal salt diet, and low salt diet conditions). No change in plasma cortisol levels after the Cortrosyn challenge was apparent across the full dose range tested (0 to 360 mg of (R)-compound 1).
(R)-compound 1 induced a dose-dependent blunting of plasma aldosterone levels as compared to Day −1 baseline and as compared to placebo, with a maximum effect achieved at the 10 mg dose level (approximate 85% to 90% decrease as compared to Day −1). This effect was observed both on the post-Cortrosyn challenge readout (time interval 0 to 4 hours), and on the standing aldosterone peak (time interval 4 to 12 hours) (See FIG. 10).
Notes: Plasma aldosterone levels that were Below limit of quantification were set to the lower limit of quantitation value (5 pg/mL) to allow further calculation. […]

[2] = biological target: T2, CYP11B1 (Homo sapiens, UniProt P15538); assay: SAD study: plasma cortisol, 11-deoxycortisol and 11-DOC after Cortrosyn challenge; format: in vivo
T2 construct: endogenous in cells; host or cells: adrenal cortex of healthy human subjects (in vivo, oral dosing)
T2 sequence (P15538 25-503): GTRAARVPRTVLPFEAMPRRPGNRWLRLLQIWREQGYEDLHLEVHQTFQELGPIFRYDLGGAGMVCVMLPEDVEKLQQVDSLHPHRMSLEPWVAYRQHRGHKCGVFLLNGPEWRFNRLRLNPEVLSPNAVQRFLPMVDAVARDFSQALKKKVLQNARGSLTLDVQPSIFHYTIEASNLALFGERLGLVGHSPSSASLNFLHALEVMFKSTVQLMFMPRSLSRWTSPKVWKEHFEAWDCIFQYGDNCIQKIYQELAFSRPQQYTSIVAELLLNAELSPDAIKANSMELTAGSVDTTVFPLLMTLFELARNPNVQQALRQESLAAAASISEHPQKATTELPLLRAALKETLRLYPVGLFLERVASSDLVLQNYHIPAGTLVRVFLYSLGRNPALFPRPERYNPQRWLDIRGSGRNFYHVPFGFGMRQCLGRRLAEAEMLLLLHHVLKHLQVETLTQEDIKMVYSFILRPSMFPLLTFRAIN
Procedure: as §1, §2

[3] = MAD study: urine pharmacokinetics; format: in vivo, human; parameters: CL renal: unit not given here; details: for Ae, D 1 (amount excreted in urine, Day 1) / Ae, D 10 (amount excreted in urine, Day 10) / Fe, D 1 (fraction of dose excreted renally, Day 1) / Fe, D 10 (fraction of dose excreted renally, Day 10) / CL renal: mean; for CL renal: human, urine, oral
Excerpt: For each subject, the study consisted of: • A screening period of up to 28 days; • A 5-day inpatient run-in period during which subjects adhered to a controlled, standardized diet and underwent baseline PD assessments; • A 15-day inpatient treatment period, during which subjects received (R)-compound 1 or placebo once daily for 10 days while adhering to a controlled, standardized diet, followed by PK and PD sampling over an additional 5 days; and • A follow-up visit 3 days (1 day) after discharge from the clinical unit. • A cortisol stimulation test (Cohorts 1 and 2 only) and standing aldosterone assessment (all cohorts) were performed on Days 1 and 10. Serial blood samples for PK and PD were obtained prior to and at specified time points over 24 hours after dosing on Day 1 as well as prior to and at specified time points over 120 hours after dosing on Day 10. In addition, blood samples for PK were collected prior to dosing on Days 8 and 9. Urine for PK and PD measurements was collected over 24 hours starting just prior to dosing on Day 1 as well as over 120 hours starting just prior to dosing on Day 10.

CCC(=O)N[C@@H]1CCCc2c(-c3ccc4c(c3)CCC(=O)N4C)cncc21 [(R)-Compound 1, (R)—N-(4-(1-methyl-2-oxo-1,2,3,4-tetrahydroquinolin-6-yl)-5,6,7,8-tetrahydroisoquinolin-8-yl)propionamide]
dose at which maximum effect on aldosterone reduction reached [1]: 10 mg | plasma cortisol levels ([2]; full dose range tested (0 to 360 mg), Cortrosyn challenge): No change | doses at which 11-DOC increased ([2]; single doses): ≥ 90 mg | 11-deoxycortisol ([2]; single doses up to 360 mg): increases in 11-deoxycortisol (at doses of 180 mg and 360 mg) | Ae, D 1 (amount excreted in urine, Day 1) ([3]; 0.5 mg QD, normal salt diet): 39952.889 ng | Ae, D 10 (amount excreted in urine, Day 10) ([3]; 0.5 mg QD, normal salt diet): 168181.917 ng | Fe, D 1 (fraction of dose excreted renally, Day 1) ([3]; 0.5 mg QD, normal salt diet): 7.991% | Fe, D 10 (fraction of dose excreted renally, Day 10) ([3]; 0.5 mg QD, normal salt diet): 33.636% | Ae, D 1 (amount excreted in urine, Day 1) ([3]; 1.5 mg QD, normal salt diet): 115762.122 ng | Ae, D 10 (amount excreted in urine, Day 10) ([3]; 1.5 mg QD, normal salt diet): 459968.526 ng | Fe, D 1 (fraction of dose excreted renally, Day 1) ([3]; 1.5 mg QD, normal salt diet): 7.717% | Fe, D 10 (fraction of dose excreted renally, Day 10) ([3]; 1.5 mg QD, normal salt diet): 30.665% | Ae, D 1 (amount excreted in urine, Day 1) ([3]; 2.5 mg QD, low salt diet): 1687233.672 ng | Ae, D 10 (amount excreted in urine, Day 10) ([3]; 2.5 mg QD, low salt diet): 766791.190 ng | Fe, D 1 (fraction of dose excreted renally, Day 1) ([3]; 2.5 mg QD, low salt diet): 6.749% | Fe, D 10 (fraction of dose excreted renally, Day 10) ([3]; 2.5 mg QD, low salt diet): 30.672% | Ae, D 1 (amount excreted in urine, Day 1) ([3]; 2.5 mg QD, normal salt diet): 270541.533 ng | Ae, D 10 (amount excreted in urine, Day 10) ([3]; 2.5 mg QD, normal salt diet): 826482.355 ng | Fe, D 1 (fraction of dose excreted renally, Day 1) ([3]; 2.5 mg QD, normal salt diet): 10.822% | Fe, D 10 (fraction of dose excreted renally, Day 10) ([3]; 2.5 mg QD, normal salt diet): 33.059% | Ae, D 1 (amount excreted in urine, Day 1) ([3]; 5.0 mg QD, low salt diet): 317339.306 ng | Ae, D 10 (amount excreted in urine, Day 10) ([3]; 5.0 mg QD, low salt diet): 1677304.469 ng | Fe, D 1 (fraction of dose excreted renally, Day 1) ([3]; 5.0 mg QD, low salt diet): 6.347% | Fe, D 10 (fraction of dose excreted renally, Day 10) ([3]; 5.0 mg QD, low salt diet): 33.546% | dose recovered unchanged in the urine, average ([3]; MAD study): approximately 7% | CL renal ([3]; 0.5 mg, 0.5 mg QD, normal salt diet, read-out: CLR, D 1 (renal clearance, Day 1) (converted)): 0.00888 | CL renal ([3]; 0.5 mg, 0.5 mg QD, normal salt diet, read-out: CLR, D 10 (renal clearance, Day 10) (converted)): 0.00822 | CL renal ([3]; 1.5 mg, 1.5 mg QD, normal salt diet, read-out: CLR, D 1 (renal clearance, Day 1) (converted)): 0.00958 | CL renal ([3]; 1.5 mg, 1.5 mg QD, normal salt diet, read-out: CLR, D 10 (renal clearance, Day 10) (converted)): 0.00733 | CL renal ([3]; 2.5 mg, 2.5 mg QD, low salt diet, read-out: CLR, D 1 (renal clearance, Day 1) (converted)): 0.00797 | CL renal ([3]; 2.5 mg, 2.5 mg QD, low salt diet, read-out: CLR, D 10 (renal clearance, Day 10) (converted)): 0.0085 | CL renal ([3]; 2.5 mg, 2.5 mg QD, normal salt diet, read-out: CLR, D 1 (renal clearance, Day 1) (converted)): 0.0136 | CL renal ([3]; 2.5 mg, 2.5 mg QD, normal salt diet, read-out: CLR, D 10 (renal clearance, Day 10) (converted)): 0.0111 | CL renal ([3]; 5 mg, 5.0 mg QD, low salt diet, read-out: CLR, D 1 (renal clearance, Day 1) (converted)): 0.00815 | CL renal ([3]; 5 mg, 5.0 mg QD, low salt diet, read-out: CLR, D 10 (renal clearance, Day 10) (converted)): 0.00822
